Test results: patent US11613533B2, “Compounds useful for inhibiting RET kinase” (Eli Lilly and Company, priority 2020, dated 2023)
Numbering of substitutions follows the chain as printed.

Tests used:
[1] = molecular target: T1, KIF5B-RET mutant form G810S in HEK293 cells (Homo sapiens, UniProt P07949, G810S); assay: RET cell assay (In-Cell Western, phospho-RET Y1062), G810S; format: cell-based; details: HEK293, doxycycline-induced KIF5B-RET G810S, 1 hr compound treatment; read-out: EC50, inhibition of intracellular autophosphorylation of RET at tyrosine 1062, G810S cells
T1 construct: expressed in transfected cells; host or cells: HEK293; the other entry of the earlier key: KIF5B (P33176, Kinesin-1 heavy chain)
T1 sequence (P07949 713-1063 G810S limits assumed): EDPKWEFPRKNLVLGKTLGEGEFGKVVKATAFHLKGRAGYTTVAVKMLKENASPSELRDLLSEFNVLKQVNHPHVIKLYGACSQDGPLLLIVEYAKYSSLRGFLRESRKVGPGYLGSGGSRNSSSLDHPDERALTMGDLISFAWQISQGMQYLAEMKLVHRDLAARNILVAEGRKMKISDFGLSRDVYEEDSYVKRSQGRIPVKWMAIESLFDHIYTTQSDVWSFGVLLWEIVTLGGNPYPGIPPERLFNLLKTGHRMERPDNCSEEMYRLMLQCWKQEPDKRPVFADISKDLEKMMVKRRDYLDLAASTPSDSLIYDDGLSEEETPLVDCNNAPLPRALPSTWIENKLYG
Procedure: (§1) Compounds of formulas (I), (II), and (III) are screened for their ability to inhibit the intracellular autophosphorylation of RET at tyrosine 1062 as detected by In-Cell Western. HEK293 cells containing a doxycycline-inducible plasmid for inducible expression of KIF5B-RET WT and RET mutant forms V804M and G810S are seeded at 25,000 cells/well into black poly-D-lysine pre-coated 384-well plates (Corning, Catalog No. 356697). Expression of KIF5B-RET is induced with doxycycline at 1 μg/mL and cells are incubated at 37° C. overnight. Compounds are prepared in a threefold serial dilution in DMSO before further diluting 1:100 in media prior to the addition to the cells (0.1% final DMSO concentration). Compound treatment is performed for 1 hr at 37° C. followed by fixation of cells with 4% formaldehyde for 20 min at RT and cell permeabilisation with ice-cold MeOH for 10 min at RT. Cells are incubated with Intercept® blocking buffer (Li—COR, Catalogue No. 927-70010) for 1 hr at RT. Incubation with primary antibodies against human phospho-RET (Y1062) (R&D, Catalogue No. AF5009, 1/250 dilution) and human glyceraldehyde-3-phosphate dehydrogenase (clone 6C5, Merck, Catalog No. MAB374, 1/1000 dilution) are performed overnight at 4° C. Incubation with secondary antibodies IRDye® 800CW goat anti-rabbit IgG (Li—COR, Catalogue No. 926-32211, 1/1000 dilution) and IRDye® 680CW goat anti-mouse IgG (Li—COR, Catalogue No. 926-68070, 1/1000 dilution) are performed for 1 hr at RT. All antibody dilutions are done in Intercept® blocking buffer containing 0.05% Tween20. After washing cells with PBS-T (Cell Signaling technology, Catalogue No. 9809), the images are acquired on a Li—COR Odyssey LCx at 700 and 800 nm. Percent of DMSO control is calculated with 100% signal referring to control conditions containing no compound (0.4% DMSO only) and 0% signal represented by conditions containing control compound. The % of DMSO control values are fit to a 4 parameter logistic curve, and the determined EC50 value is defined as the estimated concentration of inhibitor at the inflexion point of the fitted curve.

[2] = molecular target: T2, KIF5B-RET WT in HEK293 cells (Homo sapiens, UniProt P07949); assay: RET cell assay (In-Cell Western, phospho-RET Y1062), wildtype; format: cell-based; details: HEK293, doxycycline-induced KIF5B-RET WT, 1 hr compound treatment; read-out: EC50, inhibition of intracellular autophosphorylation of RET at tyrosine 1062, wildtype cells
T2 construct: expressed in transfected cells; host or cells: HEK293; the other entry of the earlier key: KIF5B (P33176, Kinesin-1 heavy chain)
T2 sequence (P07949 713-1063 limits assumed): T1 sequence (P07949 713-1063 G810S limits assumed) with S98G
Procedure: as §1

[3] = molecular target: T3, KIF5B-RET mutant form V804M in HEK293 cells (Homo sapiens, UniProt P07949, V804M); assay: RET cell assay (In-Cell Western, phospho-RET Y1062), V804M; format: cell-based; details: HEK293, doxycycline-induced KIF5B-RET V804M, 1 hr compound treatment; read-out: EC50, inhibition of intracellular autophosphorylation of RET at tyrosine 1062, V804M cells
T3 construct: expressed in transfected cells; host or cells: HEK293; the other entry of the earlier key: KIF5B (P33176, Kinesin-1 heavy chain)
T3 sequence (P07949 713-1063 V804M limits assumed): T1 sequence (P07949 713-1063 G810S limits assumed) with V92M, S98G
Procedure: as §1

Row | EC50 [1] [nM] | EC50 [2] [nM] | EC50 [3] [nM] | melting point [°C] | SMILES
1 | < 100 | < 100 | < 100 |  | CC(C(=O)Nc1cc(C(C)(C)C(F)(F)F)on1)c1ccc(-c2nn(C3(C)CC3)c(N)c2C(N)=O)nc1 (single isomer, unassigned; isomer 1) [Example 31, 5-Amino-1-(1-methylcyclopropyl)-3-[5-[(1-[[5-[1,1,1-trifluoro-2-methylpropan-2-yl)-1,2-oxazol-3-yl]carbamoyl]ethyl]pyridin-2-yl]pyrazole-4-carboxamide, Isomer 1]
2 |  |  |  | 128 | CC(C(=O)Nc1cc(CC(C)(C)C)no1)c1ccc(-c2nn(C(C)C)c(N)c2C(N)=O)cc1 (single isomer, unassigned; isomer 2) [Example 2, 5-Amino-3-[4-(1-[[3-(2,2-dimethylpropyl)-1,2-oxazol-5-yl]carbamoyl]ethyl)phenyl]-1-isopropylpyrazole-4-carboxamide, Isomer 2]
3 | < 100 | < 100 | < 100 |  | CC(C(=O)Nc1cc(CC(C)(C)C)no1)c1ccc(-c2nn(C3(C)CC3)c(N)c2C(N)=O)nc1 (single isomer, unassigned; isomer 1) [Example 33, 5-Amino-3-[5-[1-[[3-(2,2-dimethylpropyl)-1,2-oxazol-5-yl]carbamoyl]ethyl]pyridin-2-yl]-1-(1-methylcyclopropyl)pyrazole-4-carboxamide, Isomer 1]
